{
  "source": "patent US9029391B2",
  "about": "(priority 2011, dated 2015)",
  "tested_on": "HIV",
  "test": "MT4 Assay (anti-HIV activity)",
  "type": "cell-based",
  "protocol": "Antiviral HIV activity and cytotoxicity values for compounds of the invention from Table 1 were measured in parallel in the HTLV-1 transformed cell line MT-4 based on the method previously described (Hazen et al., 2007, In vitro antiviral activity of the novel, tyrosyl-based human immunodeficiency virus (HIV) type 1 protease inhibitor brecanavir (GW640385) in combination with other antiretrovirals and against a panel of protease inhibitor-resistant HIV (Hazen et al., “In vitro antiviral activity of the novel, tyrosyl-based human immunodeficiency virus (HIV) type 1 protease inhibitor brecanavir (GW640385) in combination with other antiretrovirals and against a panel of protease inhibitor-resistant HIV”, Antimicrob. Agents Chemother. 2007, 51: 3147-3154; and Pauwels et al., “Sensitive and rapid assay on MT-4 cells for the detection of antiviral compounds against the AIDS virus”, J. of Virological Methods 1987, 16: 171-185).\nLuciferase activity was measured 96 hours later by adding a cell titer glo (Promega, Madison, Wis.). Percent inhibition of cell protection data was plotted relative to no compound control. Under the same condition, cytotoxicity of the compounds was determined using cell titer glo (Promega, Madison, Wis.). IC50s were determined from a 10 point dose response curve using 3-4-fold serial dilution for each compound, which spans a concentration range >1000 fold.",
  "key": {"[1]": {"conditions": "Human immunodeficiency virus 1, 96 h, read-out: HIV MT4 Assay IC50, HTLV-1 transformed cell line MT-4, cell titer glo, 10 point dose response curve"}},
  "note": "Where two headings read alike, the source gives them in different places.",
  "data": [
    {"compound": "COc1ccc(-c2ccc3c(-c4cc(F)c5c(c4C)CCCO5)c([C@H](OC(C)(C)C)C(=O)O)n(C)c(=O)c3c2)cn1", "note": "(atropisomer, axis not shown; (M)) [Example 198, (2S)(M)-[(1,1-dimethylethyl)oxy]{4-(8-fluoro-5-methyl-3,4-dihydro-2H-chromen-6-yl)-2-methyl-7-[6-(methyloxy)-3-pyridinyl]-1-oxo-1,2-dihydro-3-isoquinolinyl}ethanoic acid]", "values": [
      {"measurement": "IC50", "setting": "[1]", "value": 0.04, "unit": "µM"}
    ]},
    {"compound": "CCc1c(-c2c(C(OC(C)(C)C)C(=O)O)n(C)c(=O)c3ccccc23)ccc2c1CCCO2", "note": "(stereo not shown) [Example 121, 2-(tert-butoxy)-2-[4-(5-ethyl-3,4-dihydro-2H-1-benzopyran-6-yl)-2-methyl-1-oxo-1,2-dihydroisoquinolin-3-yl]acetic acid]", "values": [
      {"measurement": "IC50", "setting": "[1]", "value": 0.94, "unit": "µM"}
    ]},
    {"compound": "Cc1c(-c2c([C@H](OC(C)(C)C)C(=O)O)n(C)c(=O)c3ccccc23)cc(F)c2c1CCCO2", "note": "(atropisomer, axis not shown; (M)) [Example 159, (2S)(M)-2-(tert-butoxy)-2-(4-(8-fluoro-5-methylchroman-6-yl)-2-methyl-1-oxo-1,2-dihydroisoquinolin-3-yl)acetic acid]", "values": [
      {"measurement": "IC50", "setting": "read-out: HIV MT4 Assay IC50, HTLV-1 transformed cell line MT-4, 96 hours, cell titer glo, 10 point dose response curve", "value": 0.03, "unit": "µM"}
    ]},
    {"compound": "COc1cc2c(=O)n(C)c(C(OC(C)(C)C)C(=O)O)c(-c3ccc4c(c3C)CCCO4)c2cc1Cl", "note": "(stereo not shown) [Example 130, 2-(tert-butoxy)-2-[6-chloro-7-methoxy-2-methyl-4-(5-methyl-3,4-dihydro-2H-1-benzopyran-6-yl)-1-oxo-1,2-dihydroisoquinolin-3-yl]acetic acid]", "values": [
      {"measurement": "IC50", "setting": "[1]", "value": 3.75, "unit": "µM"}
    ]},
    {"compound": "Cc1ccc2c(-c3cc(F)c4c(c3C)CCCO4)c(C(OC(C)(C)C)C(=O)O)n(C)c(=O)c2c1", "note": "(stereo not shown) [Example 124, 2-(tert-butoxy)-2-[4-(8-fluoro-5-methyl-3,4-dihydro-2H-1-benzopyran-6-yl)-2,7-dimethyl-1-oxo-1,2-dihydroisoquinolin-3-yl]acetic acid]", "values": [
      {"measurement": "IC50", "setting": "[1]", "value": 0.13, "unit": "µM"}
    ]},
    {"compound": "Cc1c(-c2c(C(OC(C)(C)C)C(=O)O)n(C)c(=O)c3cc(OCCN4CCOCC4)ccc23)ccc2c1CCCO2", "note": "(stereo not shown) [Example 119, 2-(tert-butoxy)-2-[2-methyl-4-(5-methyl-3,4-dihydro-2H-1-benzopyran-6-yl)-7-[2-(morpholin-4-yl)ethoxy]-1-oxo-1,2-dihydroisoquinolin-3-yl]acetic acid]", "values": [
      {"measurement": "IC50", "setting": "[1]", "value": 2.13, "unit": "µM"}
    ]},
    {"compound": "CCn1c(C(OC(C)(C)C)C(=O)O)c(-c2ccc3c(c2)CCCO3)c2ccccc2c1=O", "note": "(stereo not shown) [Example 65, 2-(tert-butoxy)-2-[4-(3,4-dihydro-2H-1-benzopyran-6-yl)-2-ethyl-1-oxo-1,2-dihydroisoquinolin-3-yl]acetic acid]", "values": [
      {"measurement": "IC50", "setting": "[1]", "value": 1.46, "unit": "µM"}
    ]},
    {"compound": "CCn1c(C(OC(C)(C)C)C(=O)O)c(-c2ccc(C)c(C)c2)c2ccccc2c1=O", "note": "(stereo not shown) [Example 28, 2-(tert-butoxy)-2-[4-(3,4-dimethylphenyl)-2-ethyl-1-oxo-1,2-dihydroisoquinolin-3-yl]acetic acid]", "values": [
      {"measurement": "IC50", "setting": "[1]", "value": 6.13, "unit": "µM"}
    ]},
    {"compound": "Cn1c(C(OC(C)(C)C)C(=O)O)c(-c2ccc(F)cc2F)c2ccccc2c1=O", "note": "(stereo not shown) [Example 46, 2-(tert-butoxy)-2-[4-(2,4-difluorophenyl)-2-methyl-1-oxo-1,2-dihydroisoquinolin-3-yl]acetic acid]", "values": [
      {"measurement": "IC50", "setting": "[1]", "value": 1.57, "unit": "µM"}
    ]},
    {"compound": "Cc1c(-c2c([C@H](OC(C)(C)C)C(=O)O)n(C)c(=O)c3cc(-c4ccnn4C)ccc23)cc(F)c2c1CCCO2", "note": "(atropisomer, axis not shown; (M)) [Example 195, (2S)(M)-[(1,1-dimethylethyl)oxy][4-(8-fluoro-5-methyl-3,4-dihydro-2H-chromen-6-yl)-2-methyl-7-(1-methyl-1H-pyrazol-5-yl)-1-oxo-1,2-dihydro-3-isoquinolinyl]ethanoic acid]", "values": [
      {"measurement": "IC50", "setting": "[1]", "value": 0.14, "unit": "µM"}
    ]},
    {"compound": "Cc1ccc(-c2c(C(OC(C)(C)C)C(=O)O)n(C)c(=O)c3cc(CNCc4ccccn4)ccc23)cc1C", "note": "(stereo not shown) [Example 183, 2-(tert-butoxy)-2-(4-(3,4-dimethylphenyl)-2-methyl-1-oxo-7-(((pyridin-2-ylmethyl)amino)methyl)-1,2-dihydroisoquinolin-3-yl)acetic acid]", "values": [
      {"measurement": "IC50", "setting": "[1]", "value": 3.61, "unit": "µM"}
    ]},
    {"compound": "COc1ccc(-c2c(C(OC(C)(C)C)C(=O)O)n(C)c(=O)c3ccccc23)cc1OC", "note": "(stereo not shown) [Example 50, 2-(tert-butoxy)-2-[4-(3,4-dimethoxyphenyl)-2-methyl-1-oxo-1,2-dihydroisoquinolin-3-yl]acetic acid]", "values": [
      {"measurement": "IC50", "setting": "[1]", "value": 25.6, "unit": "µM"}
    ]},
    {"compound": "Cc1c(-c2c(C(OC(C)(C)C)C(=O)O)n(C)c(=O)c3cc(OC(C)C)ccc23)ccc2c1CCCO2", "note": "(stereo not shown) [Example 135, 2-(tert-butoxy)-2-[2-methyl-4-(5-methyl-3,4-dihydro-2H-1-benzopyran-6-yl)-1-oxo-7-(propan-2-yloxy)-1,2-dihydroisoquinolin-3-yl]acetic acid]", "values": [
      {"measurement": "IC50", "setting": "[1]", "value": 0.14, "unit": "µM"}
    ]},
    {"compound": "CC(=O)N1CCc2ccc(-c3c(C(OC(C)(C)C)C(=O)O)n(C)c(=O)c4ccccc34)cc2C1", "note": "(stereo not shown) [Example 80, 2-[4-(2-acetyl-1,2,3,4-tetrahydroisoquinolin-7-yl)-2-methyl-1-oxo-1,2-dihydroisoquinolin-3-yl]-2-(tert-butoxy)acetic acid]", "values": [
      {"measurement": "IC50", "setting": "[1]", "value": 50, "unit": "µM"}
    ]},
    {"compound": "Cn1c(C(OC(C)(C)C)C(=O)O)c(-c2ccc3c(c2Cl)OCCC3)c2ccccc2c1=O", "note": "(stereo not shown) [Example 37, 2-(tert-butoxy)-2-[4-(8-chloro-3,4-dihydro-2H-1-benzopyran-7-yl)-2-methyl-1-oxo-1,2-dihydroisoquinolin-3-yl]acetic acid]", "values": [
      {"measurement": "IC50", "setting": "[1]", "value": 33.2, "unit": "µM"}
    ]},
    {"compound": "Cc1c(-c2c([C@H](OC(C)(C)C)C(=O)O)n(C)c(=O)c3cc(-c4cccnc4)ccc23)cc(F)c2c1CCCO2", "note": "(atropisomer, axis not shown; (M)) [Example 206, (2S)(M)-[(1,1-dimethylethyl)oxy][4-(8-fluoro-5-methyl-3,4-dihydro-2H-chromen-6-yl)-2-methyl-1-oxo-7-(3-pyridinyl)-1,2-dihydro-3-isoquinolinyl]ethanoic acid]", "values": [
      {"measurement": "IC50", "setting": "[1]", "value": 0.16, "unit": "µM"}
    ]},
    {"compound": "Cc1c(-c2c([C@H](OC(C)(C)C)C(=O)O)n(C)c(=O)c3cc(-c4cccn4C)ccc23)cc(F)c2c1CCCO2", "note": "(atropisomer, axis not shown; (M)) [Example 202, (S)(M)-[(1,1-dimethylethyl)oxy][4-(8-fluoro-5-methyl-3,4-dihydro-2H-chromen-6-yl)-2-methyl-7-(1-methyl-1H-pyrrol-2-yl)-1-oxo-1,2-dihydro-3-isoquinolinyl]ethanoic acid]", "values": [
      {"measurement": "IC50", "setting": "[1]", "value": 0.02, "unit": "µM"}
    ]},
    {"compound": "Cc1c(-c2c([C@H](OC(C)(C)C)C(=O)O)n(C)c(=O)c3cc(OCc4ccccn4)ccc23)ccc2c1CCCO2", "note": "[Example 144, (2S)-2-(tert-butoxy)-2-[2-methyl-4-(5-methyl-3,4-dihydro-2H-1-benzopyran-6-yl)-1-oxo-7-(pyridin-2-ylmethoxy)-1,2-dihydroisoquinolin-3-yl]acetic acid]", "values": [
      {"measurement": "IC50", "setting": "[1]", "value": 0.04, "unit": "µM"}
    ]},
    {"compound": "Cc1c(-c2c(C(OC(C)(C)C)C(=O)O)n(C)c(=O)c3cc(OCc4cccnc4)ccc23)ccc2c1CCCO2", "note": "(stereo not shown) [Example 97, 2-(tert-butoxy)-2-[2-methyl-4-(5-methyl-3,4-dihydro-2H-1-benzopyran-6-yl)-1-oxo-7-(pyridin-3-ylmethoxy)-1,2-dihydroisoquinolin-3-yl]acetic acid]", "values": [
      {"measurement": "IC50", "setting": "[1]", "value": 0.37, "unit": "µM"}
    ]},
    {"compound": "CC(=O)NCc1ccc2c(-c3ccc(C)c(C)c3)c(C(OC(C)(C)C)C(=O)O)n(C)c(=O)c2c1", "note": "(stereo not shown) [Example 184, 2-(7-(acetamidomethyl)-4-(3,4-dimethylphenyl)-2-methyl-1-oxo-1,2-dihydroisoquinolin-3-yl)-2-(tert-butoxy)acetic acid]", "values": [
      {"measurement": "IC50", "setting": "[1]", "value": 31.4, "unit": "µM"}
    ]},
    {"compound": "Cc1c(-c2c(C(OC(C)(C)C)C(=O)O)n(C)c(=O)c3cc(OCc4c(F)cccc4F)ccc23)ccc2c1CCCO2", "note": "(stereo not shown) [Example 98, 2-(tert-butoxy)-2-{7-[(2,6-difluorophenyl)methoxy]-2-methyl-4-(5-methyl-3,4-dihydro-2H-1-benzopyran-6-yl)-1-oxo-1,2-dihydroisoquinolin-3-yl}acetic acid]", "values": [
      {"measurement": "IC50", "setting": "[1]", "value": 0.09, "unit": "µM"}
    ]},
    {"compound": "Cc1c(-c2c(C(OC(C)(C)C)C(=O)O)n(C)c(=O)c3cc(C(F)(F)F)ccc23)ccc2c1CCCO2", "note": "(stereo not shown) [Example 127, 2-(tert-butoxy)-2-[2-methyl-4-(5-methyl-3,4-dihydro-2H-1-benzopyran-6-yl)-1-oxo-7-(trifluoromethyl)-1,2-dihydroisoquinolin-3-yl]acetic acid]", "values": [
      {"measurement": "IC50", "setting": "[1]", "value": 1.14, "unit": "µM"}
    ]},
    {"compound": "Cc1c(-c2c([C@H](OC(C)(C)C)C(=O)O)n(C)c(=O)c3cc(-c4ccc(F)cc4)ccc23)cc(F)c2c1CCCO2", "note": "(atropisomer, axis not shown; (M)) [Example 209, (S)(M)-2-(tert-butoxy)-2-(4-(8-fluoro-5-methylchroman-6-yl)-7-(4-fluorophenyl)-2-methyl-1-oxo-1,2-dihydroisoquinolin-3-yl)acetic acid]", "values": [
      {"measurement": "IC50", "setting": "[1]", "value": 0.02, "unit": "µM"}
    ]},
    {"compound": "Cc1cc(C)c(-c2c(C(OC(C)(C)C)C(=O)O)n(C)c(=O)c3ccccc23)cc1C", "note": "(stereo not shown) [Example 43, 2-(tert-butoxy)-2-[2-methyl-1-oxo-4-(2,4,5-trimethylphenyl)-1,2-dihydroisoquinolin-3-yl]acetic acid]", "values": [
      {"measurement": "IC50", "setting": "[1]", "value": 0.37, "unit": "µM"}
    ]},
    {"compound": "COc1ccc(-c2c(C(OC(C)(C)C)C(=O)O)n(C)c(=O)c3ccccc23)cc1C", "note": "(stereo not shown) [Example 54, 2-(tert-butoxy)-2-[4-(4-methoxy-3-methylphenyl)-2-methyl-1-oxo-1,2-dihydroisoquinolin-3-yl]acetic acid]", "values": [
      {"measurement": "IC50", "setting": "[1]", "value": 12.3, "unit": "µM"}
    ]}
  ]
}
